In PMC5118696, “Identification of inhibitors that dually target the new permeability pathway and dihydroorotate dehydrogenase in the blood stage of Plasmodium falciparum” (Scientific Reports, 2016):

test system: Hyp1-NLuc Plasmodium falciparum-infected erythrocytes (new permeability pathway, NPP); assay: microbe, parasite or virus in culture; conditions: Erythrocyte, 0.33 h, read-out: Mean RLU at 28 min (As % of DMSO control)

SMILES	activity at 2 µM [%]
CCCCc1c(C)nc2c(OC)cccc2c1O [MMV006820]	106
COc1cccc(O)c1CN1CCC2(CCCN(Cc3ccc(F)cc3)C2)C1 (stereo not shown) [MMV666061]	111
COc1cccc(C=Cc2nc(=O)c3ccccc3o2)c1OC [MMV666693]	75
COc1ccc(Nc2cc(C)nc(NCc3ccccc3)n2)cc1 [MMV006825]	107
Cc1cccc(Nc2nc(N)c3ccccc3n2)c1 [MMV019110]	105
Cc1ccc(-c2cc3c(SCC(=O)Nc4cc(C(F)(F)F)ccc4Cl)nccn3n2)cc1 [MMV396680]	106
COc1cc(C(=O)Nc2ccc(-c3nc4ccccc4[nH]3)cc2)cc(OC)c1OC [MMV665898]	108
COc1ccc(-c2cc3c(nn2)-c2ccccc2C3=O)cc1 [MMV666026]	98.8
COCCn1c(C)nc2ccccc2c1=O [MMV665904]	110
CC(=O)c1ccc(NC(=O)CSc2nc(-c3ccccc3Cl)ns2)cc1 [MMV666124]	96.8
Cc1sc(NC(=O)c2ccco2)c(C(c2cccnc2)N2CCC(Cc3ccccc3)CC2)c1C (stereo not shown) [MMV396663]	97
OC(CNC1CCCCC1)Cn1c2ccccc2c2ccccc21 (stereo not shown) [MMV009063]	97
CCc1c(C)c(=N)c2ccccc2n1C [MMV006278]	98.8
O=C1c2ccc3c4c(ccc(c24)C(=O)N1CCCCO)C(=O)N(CCCCO)C3=O [MMV009085]	93.1
CSC1=NC(=Nc2c(C)cccc2C)C2(CCC(C(C)(C)C)CC2)N1c1ccc(Cl)cc1 (stereo not shown) [MMV666596]	106
Cc1cc(Nc2ccc3ccccc3c2)n2ncnc2n1 [MMV011099]	99.9
COc1cccc(NC(=O)Cn2c(C)c(C#N)c3ccccc32)c1 [MMV665826]	101
Nc1ccc(-c2nc3cc(Oc4ccc(Oc5ccc6[nH]c(-c7ccc(N)cc7)nc6c5)cc4)ccc3[nH]2)cc1 [MMV011895]	91.2

SMILES	activity at 2 µM [%]
CC1CC(C)CN(C(=O)c2ccc(Cl)cc2Cl)C1 (stereo not shown) [MMV001344]	106
CCc1ccc(Nc2cc(C)c3ccc(O)cc3n2)cc1 [MMV000570]	106
CN(C)c1ccc(C(O)(c2ccc(N(C)C)cc2)c2ccc(N(C)C)cc2)cc1 [MMV665941]	98.3
CCCCCCc1cc(O)c2c3c(c(=O)oc2c1)CCC(C)C3 (stereo not shown) [MMV665987]	89.8
CC(C)(C)c1ccc(O)c(CNC2CCCCC2)c1 [MMV665785]	103
COc1ccc(CCN2C(=O)c3[nH]nc(-c4cc(Cl)c(C)cc4O)c3C2c2ccccc2F)cc1 (stereo not shown) [MMV396717]	96.5
CCCCc1c(CCC)c(=N)c2ccccc2n1C [MMV007764]	110
CN1CCN(c2c3c(c(C#N)c4nc5ccccc5n24)CCC3)CC1 [MMV008127]	112
COC(=O)c1ccc(Cl)c2c1C1C=CCC1C(c1cccc3ccccc13)N2 (stereo not shown) [MMV667489]	103
CCOc1ccc(CCNC(=O)c2cccs2)cc1OCC [MMV007978]	112
CCN(CC)CCn1c(=N)n(CC(O)c2ccc(Cl)c(Cl)c2)c2ccccc21 (stereo not shown) [MMV000248]	97.6
OC(Cn1nnc2ccccc21)Cn1c2ccc(Br)cc2c2cc(Br)ccc21 (stereo not shown) [MMV666025]	99.5
COCCNCC(O)Cn1c2ccc(Cl)cc2c2cc(Cl)ccc21 (stereo not shown) [MMV019017]	105
CC(C)CCNCC(O)Cn1c2ccccc2c2ccccc21 (stereo not shown) [MMV006787]	97.5
CCOC(=O)C1=C(C)N=c2sc(=Cc3ccccc3O)c(=O)n2C1c1ccc(OC)c2ccccc12 (stereo not shown) [MMV666604]	110
COc1ccccc1CNC(=O)CCn1c(=O)[nH]c2ccccc2c1=O [MMV665916]	98.8
COc1cc(C(=O)Nc2nc3c(cc4c5c(cccc53)CC4)s2)cc(OC)c1OC [MMV396665]	103

test system: Hyp1-NLuc Plasmodium falciparum-infected erythrocytes (new permeability pathway, NPP); assay: microbe, parasite or virus in culture; conditions: Erythrocyte, 0.33 h, read-out: % of control remaining

SMILES	activity at 2 µM [%]
CCCCc1c(C)nc2c(OC)cccc2c1O [MMV006820]	105
COc1cccc(O)c1CN1CCC2(CCCN(Cc3ccc(F)cc3)C2)C1 (stereo not shown) [MMV666061]	126
COc1cccc(C=Cc2nc(=O)c3ccccc3o2)c1OC [MMV666693]	29.9
COc1ccc(Nc2cc(C)nc(NCc3ccccc3)n2)cc1 [MMV006825]	110
Cc1cccc(Nc2nc(N)c3ccccc3n2)c1 [MMV019110]	106
Cc1ccc(-c2cc3c(SCC(=O)Nc4cc(C(F)(F)F)ccc4Cl)nccn3n2)cc1 [MMV396680]	101
COc1cc(C(=O)Nc2ccc(-c3nc4ccccc4[nH]3)cc2)cc(OC)c1OC [MMV665898]	103
COc1ccc(-c2cc3c(nn2)-c2ccccc2C3=O)cc1 [MMV666026]	108
COCCn1c(C)nc2ccccc2c1=O [MMV665904]	112
CC(=O)c1ccc(NC(=O)CSc2nc(-c3ccccc3Cl)ns2)cc1 [MMV666124]	69.6
Cc1sc(NC(=O)c2ccco2)c(C(c2cccnc2)N2CCC(Cc3ccccc3)CC2)c1C (stereo not shown) [MMV396663]	92.5
OC(CNC1CCCCC1)Cn1c2ccccc2c2ccccc21 (stereo not shown) [MMV009063]	92.9
CCc1c(C)c(=N)c2ccccc2n1C [MMV006278]	99.6
O=C1c2ccc3c4c(ccc(c24)C(=O)N1CCCCO)C(=O)N(CCCCO)C3=O [MMV009085]	58.9
CSC1=NC(=Nc2c(C)cccc2C)C2(CCC(C(C)(C)C)CC2)N1c1ccc(Cl)cc1 (stereo not shown) [MMV666596]	107
Cc1cc(Nc2ccc3ccccc3c2)n2ncnc2n1 [MMV011099]	99.8
COc1cccc(NC(=O)Cn2c(C)c(C#N)c3ccccc32)c1 [MMV665826]	109
Nc1ccc(-c2nc3cc(Oc4ccc(Oc5ccc6[nH]c(-c7ccc(N)cc7)nc6c5)cc4)ccc3[nH]2)cc1 [MMV011895]	74.5

SMILES	activity at 2 µM [%]
CC1CC(C)CN(C(=O)c2ccc(Cl)cc2Cl)C1 (stereo not shown) [MMV001344]	107
CCc1ccc(Nc2cc(C)c3ccc(O)cc3n2)cc1 [MMV000570]	107
CN(C)c1ccc(C(O)(c2ccc(N(C)C)cc2)c2ccc(N(C)C)cc2)cc1 [MMV665941]	96.5
CCCCCCc1cc(O)c2c3c(c(=O)oc2c1)CCC(C)C3 (stereo not shown) [MMV665987]	94.7
CC(C)(C)c1ccc(O)c(CNC2CCCCC2)c1 [MMV665785]	104
COc1ccc(CCN2C(=O)c3[nH]nc(-c4cc(Cl)c(C)cc4O)c3C2c2ccccc2F)cc1 (stereo not shown) [MMV396717]	80.3
CCCCc1c(CCC)c(=N)c2ccccc2n1C [MMV007764]	111
CN1CCN(c2c3c(c(C#N)c4nc5ccccc5n24)CCC3)CC1 [MMV008127]	111
COC(=O)c1ccc(Cl)c2c1C1C=CCC1C(c1cccc3ccccc13)N2 (stereo not shown) [MMV667489]	100
CCOc1ccc(CCNC(=O)c2cccs2)cc1OCC [MMV007978]	114
CCN(CC)CCn1c(=N)n(CC(O)c2ccc(Cl)c(Cl)c2)c2ccccc21 (stereo not shown) [MMV000248]	98.3
OC(Cn1nnc2ccccc21)Cn1c2ccc(Br)cc2c2cc(Br)ccc21 (stereo not shown) [MMV666025]	105
COCCNCC(O)Cn1c2ccc(Cl)cc2c2cc(Cl)ccc21 (stereo not shown) [MMV019017]	100
CC(C)CCNCC(O)Cn1c2ccccc2c2ccccc21 (stereo not shown) [MMV006787]	98.6
CCOC(=O)C1=C(C)N=c2sc(=Cc3ccccc3O)c(=O)n2C1c1ccc(OC)c2ccccc12 (stereo not shown) [MMV666604]	117
COc1ccccc1CNC(=O)CCn1c(=O)[nH]c2ccccc2c1=O [MMV665916]	98.4
COc1cc(C(=O)Nc2nc3c(cc4c5c(cccc53)CC4)s2)cc(OC)c1OC [MMV396665]	102
